These results are taken from PubChem BioAssay (NCI).

Test in all cases: NCI anticancer screen, dose series, 48 h
In experiment [1] the test system is SF-295 CNS.
In experiment [2] the test system is SF-539 CNS.
For experiment [3], the system named is ACHN renal.
For experiment [4], the system named is U251 CNS.
The test system of experiment [5] is HCT-15 colon.
In experiment [6] the test system is MALME-3M melanoma.
Experiment [7] has as its system COLO 205 colon.
In experiment [8] the test system is SW-620 colon.
For experiment [9], the system named is HOP-92 NSCLC.
The subject of experiment [10] is OVCAR-5 ovarian.
Experiment [11] deals with HS 578T breast.
Experiment [12] concerns T-47D breast.
Experiment [13] deals with TK-10 renal.
For experiment [14], the system named is A549 NSCLC.
Experiment [15] deals with OVCAR-8 ovarian.
Experiment [16] concerns OVCAR-3 ovarian.

Structures are written as SMILES.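 Step 1: Grow cells in 96-well plates. Step 2: Expose to compound for 48 hours at 5 concentrations. Step 3: Interpolate endpoints linearly; if unreached, use highest concentration. Abbreviation: GI50, concentration required for 50% inhibition of growth. TGI denotes the concentration required for complete inhibition of growth.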 Some results are limits rather than exact numbers.

For the molecule `CCCCCCCCC[C@@H]1C[C@@H]2CCC3C(C(=O)OC)=C(C)NC(=N1)N32` (some centres undefined), the TGI in [1] was determined as 23.6 µM; in experiment [2], 12.2 µM; in experiment [3], 32.1 µM; in [4], 16.8 µM; in experiment [5] it was 38.3 µM; in [6], 29 µM. Further, the TGI in experiment [7] was 15.1 µM; in experiment [8] it was > 100 µM; in experiment [9], 27.3 µM; in [10] it was 35.6 µM; in [11] it was 34.7 µM; in experiment [12], 25.3 µM. For the same molecule, the TGI in experiment [13] worked out at 29.1 µM; in [14], 32.6 µM; in [15], 23.7 µM; in experiment [16] it was 11.6 µM.
Turning to `CC1=C(/C=C/C(C)=C/C=C/C(C)=C/C(=O)OCC2OC(n3cc(F)c(=O)[nH]c3=O)CC2OC(=O)/C=C(C)/C=C/C=C(C)/C=C/C2=C(C)CCCC2(C)C)C(C)(C)CCC1` (centres undefined), the TGI in experiment [1] is > 40.2 µM; in [2] it was > 100 µM; in [3], > 48.3 µM; in [4], > 54.1 µM; in experiment [5] it was > 57.1 µM; in experiment [6], > 100 µM. Also, the TGI in experiment [7] was > 60.1 µM; in [8], > 52.5 µM; in experiment [9] it was 37.1 µM; in experiment [10], > 67.6 µM; in [11] it was > 68.8 µM; in experiment [12], > 64.7 µM. Moreover, the TGI in experiment [13] was > 58.4 µM; in [14], > 48.5 µM; in [15], > 66.7 µM; in experiment [16] it was > 39.5 µM.
For `Cc1ccc(S(=O)ON2CCC(C(=O)O)(c3ccccc3)CC2)cc1` (centres undefined), the TGI in experiment [1], in [2], in experiment [3], in [4], in [5] and in [6] was > 100 µM throughout. Also, the TGI in experiment [7], in experiment [8], in [9], in experiment [10], in experiment [11] and in experiment [12] was > 100 µM each time. The TGI in experiment [13], in [14], in experiment [15] and in experiment [16] was > 100 µM in each case. In experiment [2], the GI50 is > 100 µM.
Turning to `Cn1c(=O)oc2cc(C(=O)CSC(=S)N3CCCCCC3)ccc21`, the TGI in experiment [1], in experiment [2], in [3], in experiment [4], in experiment [5] and in experiment [6] was > 100 µM in each case. The TGI in experiment [7], in experiment [8], in experiment [9], in experiment [10], in experiment [11] and in [12] was > 100 µM each time. The TGI in [13], in experiment [14], in [15] and in [16] was > 100 µM throughout.
Regarding `O=c1c2ccccc2nc2n1NC(c1c(Cl)cccc1Cl)N2c1cccc(Cl)c1` (centres undefined), the TGI in [1] is > 100 µM; in experiment [2], 31 µM; in experiment [3] it was 12.5 µM; in [4], 5.19 µM; in experiment [5], > 100 µM; in experiment [6], 29.7 µM. Further, the TGI is > 100 µM in experiment [7]; 14.3 µM in experiment [8]; 21.8 µM in [9]; 19.1 µM in experiment [10]; > 100 µM in [11]; 32.2 µM in experiment [12]. Moreover, the TGI in [13] amounted to 21.8 µM; in experiment [14], 22.2 µM; in experiment [15], 12 µM; in experiment [16], 54.2 µM.
Take `CN1CCCN2CCN(C)CCN(CC1)CC2`: the TGI in experiment [1], in experiment [2], in experiment [3], in experiment [4], in experiment [5] and in [6] was > 100 µM throughout. Besides, the TGI in experiment [7], in experiment [8], in experiment [9], in [10], in experiment [11] and in experiment [12] was > 100 µM throughout. The TGI in experiment [13], in experiment [14], in [15] and in experiment [16] was > 100 µM throughout.
On to `Clc1ccc(N=C/C=C/Nc2ccc(Cl)cn2)nc1`, for which the TGI in experiment [1] is 30.6 µM; in experiment [2], 31.3 µM; in [3], 25.1 µM; in experiment [4], 20.7 µM; in experiment [5], 13 µM; in [6], 31.2 µM. Besides, the TGI in [7] was 25.3 µM; in [8], 16.9 µM; in [9], 30.1 µM; in [10] it was 30 µM; in experiment [11] it was 23.3 µM; in [12] it was 40.9 µM. Besides, the TGI in experiment [13] was 34.9 µM; in experiment [14], 29.1 µM; in experiment [15] it was 23.3 µM; in [16] it was 26.6 µM.
As for `CNC(=S)/C(=N\Nc1nc[nH]c1C(N)=O)C(N)=S`, the TGI was 41.6 µM in experiment [1]; > 81.3 µM in experiment [2]; 61.8 µM in [3]; > 82.8 µM in [4]; > 100 µM in experiment [5]; > 54.8 µM in [6]. Moreover, the TGI was 41.1 µM in experiment [7]; > 92 µM in experiment [8]; 99.4 µM in experiment [9]; > 100 µM in experiment [10]; > 81.8 µM in experiment [11]; > 89.3 µM in [12]. Also, the TGI was > 57.5 µM in experiment [13], > 100 µM in experiment [14], > 57.5 µM in experiment [15] and > 50.2 µM in [16].
